Assay results taken from the NIST ThermoML archive (doi:10.1021/je900137r).
Numbers after ± are expanded uncertainties.

Details: Crystal; Adiabatic calorimetry

Triple point temperature: 85.53 ± 0.039 K
Compound: CCC [propane]
